Patent US9994535B2, “Desferrithiocin polyether analogues” (University of Florida Research Foundation, Inc., priority 2005, dated 2018)

What was measured:
[1] = Tissue and plasma concentrations upon subcutaneous administration to rats; format: in vivo; conditions: rat, sc 300 μmol/kg
Procedure: Tissue Distribution of a Polyether-Substituted (S)-4′-Hydroxydesazadesferrithiocin Analogue [(S)-4′-(HO)-DADFT-PE] Upon Subcutaneous Administration to Rats
A measurement was made assessing (S)-4′-(HO)-DADFT-PE and (S)-4′-(HO)-DADFT tissue and plasma concentrations upon subcutaneous administration at times from 2-8 h post dosing. The rats were given this compound subcutaneously at 300 μmol/kg. The tissue and plasma level were obtained as described in Bergeron et al. J Med Chem. 48:821-831 (2005), the entire contents of which are incorporated herein by reference.

[2] = Iron clearing efficiency in non-iron overloaded, bile duct cannulated rat model; format: in vivo; conditions: for Efficiency (%) (iron clearing efficiency): 300 μmol/kg, 24 hour iron excretion, 2:1 ligand-iron complex; for Iron clearing efficiency compared with parent drug (S)-4-(HO)-DADFT: same micromole per kilogram dose
Procedure: Iron Clearing Efficiency of Iron Chelators in a Non-Iron Overloaded, Bile Duct Cannulated Rat Model
Studies were performed in the non-iron overloaded, bile duct cannulated rodent model with the compounds shown below.
Briefly, male Sprague-Dawley rats averaging 450 g were housed in Nalgene plastic metabolic cages during the experimental period and given free access to water. The animals were anesthetized using sodium pentobarbital (55 mg/kg) administered intraperitoneally. The bile duct was cannulated using 22-gauge polyethylene tubing. The cannula was inserted into the duct about 1 cm from the duodenum and tied snugly in place. After threading through the shoulder, the cannula was passed from the rat to the swivel inside a metal torque-transmitting tether, which was attached to a rodent jacket around the animal's chest. The cannula was directed from the rat to a Gilson microfraction collector (Middleton, Wis.) by a fluid swivel mounted above the metabolic cage. Three hour bile samples were continuously collected for a minimum of 24 hours up to 48 hours. However, the efficiency calculations are based on the 24 hour iron excretion. The efficiency of each chelator was calculated on the basis of a 2:1 ligand-iron complex. The efficiencies in the rodent model were calculated by subtracting the iron excretion of control animals from the iron excretion of treated animals. This number was then divided by the theoretical output; the result is expressed as a percentage (Bergeron, R. J., et al., J. Med Chem. 42:95-108 (1999) the entire contents of which are incorporated herein by reference). The urine sample was taken at 24 hours and handled as previously described in Bergeron, R. J., et al., J. Med. Chem. 34:2072-2078 (1991), the entire contents of which are incorporated herein by reference.

COc1ccc(C2=N[C@@](C)(C(=O)O)CS2)c(O)c1 [(S)-4′-(CH3O)-DADFT]
Brain concentration of administered compound ([1]; 2 h): 13.2 ± 4.8 nmol/g wet wt
Brain concentration of metabolite of administered compound ([1]; 2 h): <2.4 nmol/g wet wt
Brain concentration of administered compound ([1]; 4 h): 7.4 ± 0.7 nmol/g wet wt
Brain concentration of metabolite of administered compound ([1]; 4 h): <2.4 nmol/g wet wt
Brain concentration of administered compound ([1]; 6 h): 4.8 ± 3.1 nmol/g wet wt
Brain concentration of metabolite of administered compound ([1]; 6 h): <2.4 nmol/g wet wt
Brain concentration of administered compound ([1]; 8 h): <1.6 ± 0.0 nmol/g wet wt
Brain concentration of metabolite of administered compound ([1]; 8 h): <2.4 nmol/g wet wt
Heart concentration of administered compound ([1]; 2 h): 66.2 ± 2.2 nmol/g wet wt
Heart concentration of metabolite of administered compound ([1]; 2 h): 6.4 ± 0.6 nmol/g wet wt
Heart concentration of administered compound ([1]; 4 h): 32.6 ± 3.6 nmol/g wet wt
Heart concentration of metabolite of administered compound ([1]; 4 h): <4.8 nmol/g wet wt
Heart concentration of administered compound ([1]; 6 h): 28.2 ± 0.7 nmol/g wet wt
Heart concentration of metabolite of administered compound ([1]; 6 h): <4.8 nmol/g wet wt
Heart concentration of administered compound ([1]; 8 h): 26.3 ± 9.7 nmol/g wet wt
Heart concentration of metabolite of administered compound ([1]; 8 h): <4.8 nmol/g wet wt
Kidney concentration of administered compound ([1]; 2 h): 97.5 ± 24.5 nmol/g wet wt
Kidney concentration of metabolite of administered compound ([1]; 2 h): 49.9 ± 21.3 nmol/g wet wt
Kidney concentration of administered compound ([1]; 4 h): 57.0 ± 15.5 nmol/g wet wt
Kidney concentration of metabolite of administered compound ([1]; 4 h): 23.2 ± 1.7 nmol/g wet wt
Kidney concentration of administered compound ([1]; 6 h): 67.2 ± 9.9 nmol/g wet wt
Kidney concentration of metabolite of administered compound ([1]; 6 h): 21.7 ± 6.2 nmol/g wet wt
Kidney concentration of administered compound ([1]; 8 h): 67.4 ± 19.9 nmol/g wet wt
Kidney concentration of metabolite of administered compound ([1]; 8 h): 25.3 ± 2.5 nmol/g wet wt
Liver concentration of administered compound ([1]; 2 h): 111.0 ± 14.0 nmol/g wet wt
Liver concentration of metabolite of administered compound ([1]; 2 h): 43.5 ± 4.5 nmol/g wet wt
Liver concentration of administered compound ([1]; 4 h): 73.8 ± 10.8 nmol/g wet wt
Liver concentration of metabolite of administered compound ([1]; 4 h): 24.6 ± 1.1 nmol/g wet wt
Liver concentration of administered compound ([1]; 6 h): 80.9 ± 10.7 nmol/g wet wt
Liver concentration of metabolite of administered compound ([1]; 6 h): 26.9 ± 5.1 nmol/g wet wt
Liver concentration of administered compound ([1]; 8 h): 81.4 ± 15.9 nmol/g wet wt
Liver concentration of metabolite of administered compound ([1]; 8 h): 25.0 ± 3.6 nmol/g wet wt
Pancreas concentration of administered compound ([1]; 2 h): 37.1 ± 3.8 nmol/g wet wt
Pancreas concentration of metabolite of administered compound ([1]; 2 h): 1.3 ± 2.2 nmol/g wet wt
Pancreas concentration of administered compound ([1]; 4 h): 19.4 ± 1.4 nmol/g wet wt
Pancreas concentration of metabolite of administered compound ([1]; 4 h): 0.0 ± 0.0 nmol/g wet wt
Pancreas concentration of administered compound ([1]; 6 h): 16.5 ± 4.5 nmol/g wet wt
Pancreas concentration of metabolite of administered compound ([1]; 6 h): 0.0 ± 0.0 nmol/g wet wt
Pancreas concentration of administered compound ([1]; 8 h): 9.7 ± 0.7 nmol/g wet wt
Pancreas concentration of metabolite of administered compound ([1]; 8 h): 0.0 ± 0.0 nmol/g wet wt
Plasma concentration of administered compound ([1]; plasma, 2 h): 478.8 ± 36.8 µM
Plasma concentration of metabolite of administered compound ([1]; plasma, 2 h): 8.4 ± 1.8 µM
Plasma concentration of administered compound ([1]; plasma, 4 h): 236.3 ± 42.0 µM
Plasma concentration of metabolite of administered compound ([1]; plasma, 4 h): 4.2 ± 1.0 µM
Plasma concentration of administered compound ([1]; plasma, 6 h): 142.5 ± 29.5 µM
Plasma concentration of metabolite of administered compound ([1]; plasma, 6 h): 1.8 ± 0.6 µM
Plasma concentration of administered compound ([1]; plasma, 8 h): 79.6 ± 13.3 µM
Plasma concentration of metabolite of administered compound ([1]; plasma, 8 h): 0.0 ± 0.0 µM
Efficiency (%) (iron clearing efficiency) ([2]; p.o.): 6.6 ± 2.8%

C[C@]1(C(=O)O)CSC(c2ccc(O)cc2O)=N1 [(S)-4′-(HO)-DADFT, (S)-2-(2,4-dihydroxyphenyl)-4,5-dihydro-4-methyl-4-thiazolecarboxylic acid]
Brain concentration of administered compound ([1]; 2 h): 0 ± 0 nmol/g wet wt
Brain concentration of administered compound ([1]; 4 h): 0 ± 0 nmol/g wet wt
Brain concentration of administered compound ([1]; 6 h): 0 ± 0 nmol/g wet wt
Brain concentration of administered compound ([1]; 8 h): 0 ± 0 nmol/g wet wt
Heart concentration of administered compound ([1]; 2 h): 4.6 ± 3^ nmol/g wet wt
Heart concentration of administered compound ([1]; 4 h): 0 ± 0 nmol/g wet wt
Heart concentration of administered compound ([1]; 6 h): 0 ± 0 nmol/g wet wt
Heart concentration of administered compound ([1]; 8 h): 0 ± 0 nmol/g wet wt
Kidney concentration of administered compound ([1]; 2 h): 97.1 ± .50 nmol/g wet wt
Kidney concentration of administered compound ([1]; 4 h): 26.6 ± 7.1 nmol/g wet wt
Kidney concentration of administered compound ([1]; 6 h): 13.0 ± 8.0 nmol/g wet wt
Kidney concentration of administered compound ([1]; 8 h): 8.8 ± 2.9 nmol/g wet wt
Liver concentration of administered compound ([1]; 2 h): 48.3 ± 20.3 nmol/g wet wt
Liver concentration of administered compound ([1]; 4 h): 25.0 ± 3.9 nmol/g wet wt
Liver concentration of administered compound ([1]; 6 h): 19.3 ± 2.0 nmol/g wet wt
Liver concentration of administered compound ([1]; 8 h): 12.3 ± 0.8 nmol/g wet wt
Pancreas concentration of administered compound ([1]; 2 h): 5.8 ± 1.3 nmol/g wet wt
Pancreas concentration of administered compound ([1]; 4 h): 0 ± 0 nmol/g wet wt
Pancreas concentration of administered compound ([1]; 6 h): 0 ± 0 nmol/g wet wt
Pancreas concentration of administered compound ([1]; 8 h): 0 ± 0 nmol/g wet wt
concentration at 2 h ([1]; plasma, 2 h, read-out: Plasma concentration of administered compound): 13.1 ± 2.7 µM
Plasma concentration of administered compound ([1]; plasma, 4 h): 2 ± 0.4 µM
concentration at 6 h ([1]; plasma, 6 h, read-out: Plasma concentration of administered compound): 0 nM
concentration at 8 h ([1]; plasma, 8 h, read-out: Plasma concentration of administered compound): 0 nM
Efficiency (%) (iron clearing efficiency) ([2]; p.o.): 1.0 ± 0.4%
Efficiency (%) (iron clearing efficiency) ([2]; s.c.): 1.1 ± 0.6%

CCOC(=O)[C@@]1(C)CSC(c2ccc(OCCOCCOCCOC)cc2O)=N1 [(S)-4′-(HO)-DADFT-PE EE]
Efficiency (%) (iron clearing efficiency) ([2]; s.c.): 11.4 ± 0.8%
Iron clearing efficiency compared with parent drug (S)-4-(HO)-DADFT [2]: work better than the parent drug

COCCOCCOCCOc1ccc(C2=N[C@@](C)(C(=O)OC(C)C)CS2)c(O)c1 [(S)-4′-(HO)-DADFT-PE iPrE]
Efficiency (%) (iron clearing efficiency) ([2]; p.o.): 9.2 ± 4.4%
Efficiency (%) (iron clearing efficiency) ([2]; s.c.): 25.9 ± 9.2%
Iron clearing efficiency of isopropylester vs ethyl ester ([2]; both administered subcutaneously): significantly more efficient
Iron clearing efficiency compared with parent drug (S)-4-(HO)-DADFT [2]: work better than the parent drug

CC(C)OC(=O)[C@@]1(C)CSC(c2ccc(O)cc2O)=N1 [(S)-4′-(HO)-DADFT-iPrE]
Efficiency (%) (iron clearing efficiency) ([2]; s.c.): 1.98 ± 0.91%
